Source: patent US12649751B2 (Arcus Biosciences, Inc., priority 2022, dated 2026)
Where two headings read alike, the source gives them in different places.

Tests used:
HPK1 = HPK1 (Homo sapiens, UniProt Q92918); experiment: HPK1 Biochemical Assay (ADP-Glo luminescence; low ATP 10 μM or high ATP 200 μM)
[1] = tested on: p-SLP-76 (Ser376) in Jurkat cells; experiment: pSLP76 Cellular Assay (AlphaLISA SureFire Ultra p-SLP-76 (Ser376), anti-CD3 activated Jurkat cells); format: cell-based; settings: Homo sapiens, read-out: Cellular Potency
Description: pSLP76 cellular assay was performed using Jurkat cells and the AlphaLISA SureFire Ultra p-SLP-76 (Ser376) Assay Kit (PerkinElmer). Dose-response assays were performed in Greiner® Low Volume 384-well assay plates containing 200 nL of 22 serial 2-fold compound dilutions using Bravo and Echo. Jurkat cells were grown in RPMI-1640 supplemented with 10% FBS and PSG. The day prior to the assay, the cells were collected, and serum starved overnight in Opti-MEM. The day of the assay, the cells were collected and resuspended in HBSS. 100,000 cells/well were added to the compound plates and after a short spin, the plates were incubated at 37° C. for 1 h. The cells were activated by adding 10 μL of 0.025 mg/ml anti-CD3. Plates were then incubated at 37° C. for 45 min. Stimulation was terminated by adding […], followed by a brief centrifugation and 60 min of shaking at 300 rpm. Cell lysates (10 μL) were transferred to 384-well White Opti-plates and the samples were processed according to the manufacturer's directions. The fluorescence signal from pSLP76 was measured at 570 nm using Envision plate reader. IC50 values were determined by fitting the data to a standard 4-parameter logistic equation. The results are summarized in the Cellular Potency columns in Tables 4 and 5 below (Cellular Potency).

[2] = 2 nM HPK1, 10 μM ATP, read-out: Biochemical Potency (low ATP)
[3] = Jurkat cells, anti-CD3 stimulation, pSLP76
[4] = HPK1 ADP-Glo assay, high ATP (200 μM ATP, 5 nM HPK1), read-out: Biochemical Potency (high ATP)
[5] = pSLP76 (Ser376) AlphaLISA, anti-CD3 activated Jurkat cells
[6] = HPK1 ADP-Glo assay, low ATP (10 μM ATP, 2 nM HPK1), read-out: Biochemical Potency (low ATP)

HPK1, sequence (Q92918 whole entry, species assumed): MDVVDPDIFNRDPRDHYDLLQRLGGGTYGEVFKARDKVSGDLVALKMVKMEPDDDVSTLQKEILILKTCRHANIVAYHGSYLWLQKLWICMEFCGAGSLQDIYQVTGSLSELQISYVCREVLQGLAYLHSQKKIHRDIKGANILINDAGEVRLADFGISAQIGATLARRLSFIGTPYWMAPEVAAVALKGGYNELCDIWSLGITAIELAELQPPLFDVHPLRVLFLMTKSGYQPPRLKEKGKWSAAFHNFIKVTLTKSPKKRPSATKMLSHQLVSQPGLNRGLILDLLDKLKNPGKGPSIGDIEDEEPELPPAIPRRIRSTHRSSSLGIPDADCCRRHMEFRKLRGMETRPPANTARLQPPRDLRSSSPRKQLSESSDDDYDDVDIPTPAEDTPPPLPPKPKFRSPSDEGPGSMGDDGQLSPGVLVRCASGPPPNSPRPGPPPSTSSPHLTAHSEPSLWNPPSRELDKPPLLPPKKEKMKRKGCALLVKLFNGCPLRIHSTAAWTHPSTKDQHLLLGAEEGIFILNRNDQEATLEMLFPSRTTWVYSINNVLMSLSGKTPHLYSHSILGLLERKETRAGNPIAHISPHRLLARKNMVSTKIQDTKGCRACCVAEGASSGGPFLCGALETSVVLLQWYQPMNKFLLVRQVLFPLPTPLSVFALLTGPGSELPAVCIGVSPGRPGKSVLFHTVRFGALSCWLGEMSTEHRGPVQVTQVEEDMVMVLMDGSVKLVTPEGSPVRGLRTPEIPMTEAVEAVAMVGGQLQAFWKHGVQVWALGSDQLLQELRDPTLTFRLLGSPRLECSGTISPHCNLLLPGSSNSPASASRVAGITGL

| IC50 (HPK1; [2]) [nM] | IC50 [1, 5] [nM] | SMILES | other results |
| --- | --- | --- | --- |
|  | 100 to 1000 | Cc1cc(Nc2cc3nc(-c4ccnc(N5CCOC[C@H]5C)c4)sc3cn2)nc(N2C[C@@H]3C[C@H]2CN3C)n1 [Example 455] | IC50 (HPK1; [4]): < 100 nM |
|  | 100 to 1000 | CCC(O)(CC)c1cc(-c2nc3cc(Nc4cc(C)nc(N5C[C@@H]6C[C@H]5CN6C)n4)ncc3s2)ccn1 [Example 387] | IC50 (HPK1; [4]): < 100 nM |
|  | 100 to 1000 | CCN1C[C@@H]2C[C@H]1CN2c1nc(C)cc(Nc2cc3nc(O[C@H](C)c4c(Cl)ccc(F)c4Cl)sc3cn2)n1 [Example 485] | IC50 (HPK1; [4]): < 100 nM |
|  | 100 to 1000 | CN1C[C@@H]2C[C@H]1CN2c1nccc(Nc2cc3nc(-c4cccc(S(=O)(=O)N(C)C)c4)sc3cn2)n1 [Example 415] | IC50 (HPK1; [6]): < 100 nM |
|  | 100 to 1000 | Cc1cc(Nc2cc3nc(-c4cnn(CS(C)(=O)=O)c4)sc3cn2)nc(N2C[C@@H]3C[C@H]2CN3CCO)n1 [Example 369] | IC50 (HPK1; [4]): < 100 nM |
|  | 100 to 1000 | CCN1C[C@@H]2C[C@H]1CN2c1nc(C)cc(Nc2cc3nc(-c4cccc(C(=O)N5CC[C@H](OC)C5)c4)sc3cn2)n1 [Example 534] | IC50 (HPK1; [4]): < 100 nM |
|  | 100 to 1000 | Cc1cc(Nc2cc3nc(-c4cccc(C(=O)N(C)C5CCOC5)c4)sc3cn2)nc(N2C[C@@H]3C[C@H]2CN3CCO)n1 (stereo partly drawn) [Example 559] |  |
|  | 100 to 1000 | Cc1cc(Nc2cc3nc(-c4cccc(C(=O)N(C)CC5CCOC5)c4)sc3cn2)nc(N2C[C@@H]3C[C@H]2CN3CCO)n1 (stereo partly drawn) [Example 557] |  |
|  | < 100 | Cc1cc(Nc2cc3nc(-c4cccc(C(=O)N(C)C5CCCOC5)c4)sc3cn2)nc(N2C[C@@H]3C[C@H]2CN3CCO)n1 (stereo partly drawn) [Example 542] |  |

Continued, compound first:

| SMILES | IC50 (HPK1; [2]) [nM] | IC50 [1, 5] [nM] | other results |
| --- | --- | --- | --- |
| CN1C[C@@H]2C[C@H]1CN2c1nccc(Nc2cc3nc(-c4ccnc(N5CC[C@@H](O)C5)c4)sc3cn2)n1 [Example 264, (3R)-1-{4-[6-({2-[(1S,4S)-5-Methyl-2,5-diazabicyclo[2.2.1]heptan-2-yl]pyrimidin-4-yl}amino)-[1,3]thiazolo[5,4-c]pyridin-2-yl]pyridin-2-yl}pyrrolidin-3-ol] | < 100 |  | IC50 [1, 3]: 100 to 1000 nM |
| NC1(c2nc(Nc3cc4nc(-c5c(F)cccc5F)sc4cn3)ccc2N2CCC(F)(F)C2)CC1 [Example 274, 6-(1-Aminocyclopropyl)-N-[2-(2,6-difluorophenyl)-[1,3]thiazolo[5,4-c]pyridin-6-yl]-5-(3,3-difluoropyrrolidin-1-yl)pyridin-2-amine] | < 100 |  | IC50 [1, 3]: > 5000 nM |
| Cn1ccnc1-c1nc2cc(Nc3ccc(C4CCOCC4)c(CN4CCCC4)n3)ncc2s1 [Example 217, N-[2-(1-Methyl-1H-imidazol-2-yl)-[1,3]thiazolo[5,4-c]pyridin-6-yl]-5-(oxan-4-yl)-6-[(pyrrolidin-1-yl)methyl]pyridin-2-amine] | < 100 |  | IC50 [1, 3]: < 100 nM |
| Cc1ccc(Nc2cc3nc(-n4nccc4C)sc3cn2)nc1CN1CCCC1 [Example 197, 5-Methyl-N-[2-(5-methyl-1H-pyrazol-1-yl)-[1,3]thiazolo[5,4-c]pyridin-6-yl]-6-[(pyrrolidin-1-yl)methyl]pyridin-2-amine] | < 100 |  | IC50 [1, 3]: 100 to 1000 nM |
| CN(C)Cc1nc(Nc2cc3nc(-c4ccncc4F)sc3cn2)ccc1N1CCOCC1 [Example 4, 6-[(Dimethylamino)methyl]-N-[2-(3-fluoropyridin-4-yl)-[1,3]thiazolo[5,4-c]pyridin-6-yl]-5-(morpholin-4-yl)pyridin-2-amine] | < 100 |  | IC50 [1, 3]: 100 to 1000 nM |
| Cc1ccc(Nc2cc3nc(-c4ncccc4C)sc3cn2)nc1OC[C@H](N)C(C)(C)C [Example 180, 6-[(2R)-2-Amino-3,3-dimethylbutoxy]-5-methyl-N-[2-(3-methylpyridin-2-yl)-[1,3]thiazolo[5,4-c]pyridin-6-yl]pyridin-2-amine] |  |  | IC50 [1, 3]: > 5000 nM |
| CN1C[C@@H]2C[C@H]1CN2c1cccc(Nc2cc3nc(-c4cccc(S(C)(=O)=O)c4)sc3cn2)n1 [Example 136, N-[2-(3-Methanesulfonylphenyl)-[1,3]thiazolo[5,4-c]pyridin-6-yl]-6-[(1S,4S)-5-methyl-2,5-diazabicyclo[2.2.1]heptan-2-yl]pyridin-2-amine] |  |  | IC50 [1, 3]: 100 to 1000 nM |
| COc1ccc(N2C[C@@H]3C[C@H]2CN3C)nc1Nc1cc2nc(-c3ncccc3C)sc2cn1 [Example 118, 3-Methoxy-6-[(1S,4S)-5-methyl-2,5-diazabicyclo[2.2.1]heptan-2 yl]-N-[2-(3-methylpyridin-2-yl)-[1,3]thiazolo[5,4-c]pyridin-6-yl]pyridin-2-amine] | < 100 |  |  |
| CN1C[C@@H]2C[C@H]1CN2c1nccc(Nc2cc3nc(N4CCc5cccnc5C4)sc3cn2)n1 [Example 428] |  |  | IC50 (HPK1; [6]): 100 to 1000 nM |
| Cc1ccc(Nc2cc3nc(-c4ncccc4C)sc3cn2)nc1CN1CC[C@@H](F)C1 [Example 42, 6-{[(3R)-3-Fluoropyrrolidin-1-yl]methyl}-5-methyl-N-[2-(3-methylpyridin-2-yl)-[1,3]thiazolo[5,4-c]pyridin-6-yl]pyridin-2-amine] | < 100 |  |  |
| Fc1ccc(-c2nc3cc(Nc4ccc(C5CCOCC5)c(CN5CCCC5)n4)ncc3s2)cc1 [Example 223] | < 100 |  |  |
| Cc1cc(Nc2cc3nc(-c4cccc(C(=O)N(C)[C@@H]5CCCOC5)c4)sc3cn2)nc(N2C[C@@H]3C[C@H]2CN3CCO)n1 [Example 542] |  |  | IC50 (HPK1; [4]): < 100 nM |
| Cc1cccnc1-c1nc2cc(Nc3ccc(C)c(N4C[C@H](N)C[C@@H]4CO)n3)ncc2s1 [Example 67, [(2R,4R)-4-Amino-1-(3-methyl-6-{[2-(3-methylpyridin-2-yl)-[1,3]thiazolo[5,4-c]pyridin-6-yl]amino}pyridin-2-yl)pyrrolidin-2-yl]methanol] | < 100 |  |  |
| C[C@H]1CCCN1c1nc2cc(Nc3ccc(C4CCOCC4)c(CN4CCCC4)n3)ncc2s1 [Example 230, N-{2-[(2S)-2-Methylpyrrolidin-1-yl]-[1,3]thiazolo[5,4-c]pyridin-6-yl}-5-(oxan-4-yl)-6-[(pyrrolidin-1-yl)methyl]pyridin-2-amine] | < 100 |  |  |
| CN1C[C@@H]2C[C@H]1CN2c1nccc(Nc2cc3nc(-c4ccnc(N5CCC[C@@H](O)C5)c4)sc3cn2)n1 [Example 459] |  |  | IC50 (HPK1; [6]): < 100 nM |
| CN(C)S(=O)(=O)c1cccc(-c2nc3cc(Nc4cccc(N5C[C@@H]6C[C@H]5CN6)n4)ncc3s2)c1 [Example 325] |  |  | IC50 (HPK1; [6]): < 100 nM |
| CN1C[C@@H]2C[C@H]1CN2c1cncc(Nc2cc3nc(-c4cccc(C(=O)N5CCCC5)c4)sc3cn2)n1 [Example 147, 6-[(1S,4S)-5-Methyl-2,5-diazabicyclo[2.2.1]heptan-2-yl]-N-{2-[3-(pyrrolidine-1-carbonyl)phenyl]-[1,3]thiazolo[5,4-c]pyridin-6-yl}pyrazin-2-amine] | < 100 |  |  |
| Cc1cc(Nc2cc3nc(-c4cc5n(n4)CC(=O)N(C(C)C)CC5)sc3cn2)nc(O[C@H]2CCNC2)c1 [Example 185, 2-(6-{[4-Methyl-6-((3S)-pyrrolidin-3-yloxy)pyridin-2-yl]amino}-[1,3]thiazolo[5,4-c]pyridin-2-yl)-6-(propan-2-yl)-4H,5H,6H,7H,8H-pyrazolo[1,5-d][1,4]diazepin-7-one] | 100 to 1000 |  |  |
| Cc1cccnc1-c1nc2cc(Nc3cccc(N4CCN(C)[C@@H](C)C4)n3)ncc2s1 [Example 94, 6-[(3S)-3,4-Dimethylpiperazin-1-yl]-N-[2-(3-methylpyridin-2-yl)-[1,3]thiazolo[5,4-c]pyridin-6-yl]pyridin-2-amine] | < 100 |  |  |
